We go through 24 compounds from PubChem BioAssay (NCI).

Test systems include SNB-75 CNS; OVCAR-3 ovarian; A549 NSCLC; HCT-15 colon; CCRF-CEM leukemia; 786-0 renal; SR leukemia; SK-MEL-5 melanoma.
Assay in all cases: inhibition of tumour cell growth, NCI panel, 48 h

Values joined by “and” are separate entries in the source; they are usually repeats but may differ in a detail not shown here. Equal entries are not always repeated.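 48-hour exposure; five concentrations; linearly interpolated endpoints. GI50: concentration for 50% inhibition of growth. TGI marks complete inhibition of growth.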

As to `N#Cc1cccnc1Cl`, the TGI in the experiment on SNB-75 CNS, in the experiment on OVCAR-3 ovarian, in the experiment with A549 NSCLC, with HCT-15 colon, in the experiment with CCRF-CEM leukemia and in the experiment on 786-0 renal was over 100 µM each time. Also, the TGI in the experiment on SR leukemia and with SK-MEL-5 melanoma was over 100 µM in each case.

As for `O=C(NCO)NCOCn1c(=O)n(CO)c(=O)n(CO)c1=O`, the TGI with SNB-75 CNS is over 100 µM; with OVCAR-3 ovarian, over 100 µM; in the experiment with A549 NSCLC, over 100 µM; in the experiment on HCT-15 colon, 60.9 µM; with CCRF-CEM leukemia it was 23.6 µM; in the experiment with 786-0 renal it was over 100 µM. The TGI is 81.9 µM in the experiment on SR leukemia and over 83 µM in the experiment on SK-MEL-5 melanoma.

For the compound `Clc1ccc2c(c1)-c1c3c(nn1-c1ccccc1)-c1ccccc1SC3O2` (stereo not drawn), the TGI in the experiment with SNB-75 CNS, in the experiment on OVCAR-3 ovarian, in the experiment on A549 NSCLC, in the experiment on CCRF-CEM leukemia, in the experiment on 786-0 renal and in the experiment with SK-MEL-5 melanoma was over 100 µM in each case.

Consider `CN(C)c1cc[c]([Sn]([c]2ccc(N(C)C)cc2)([c]2ccc(N(C)C)cc2)[c]2ccc(N(C)C)cc2)cc1`, for which the GI50 in the experiment with SNB-75 CNS is 4.36 µM; with OVCAR-3 ovarian, 3.38 µM; in the experiment with A549 NSCLC, 13.8 µM; in the experiment with HCT-15 colon it was over 100 µM; in the experiment on CCRF-CEM leukemia it was 1260 nM; with 786-0 renal it was 5.36 µM. The GI50 with SK-MEL-5 melanoma was 2.85 µM. Moreover, the TGI is 17.2 µM in the experiment with SNB-75 CNS; 18.9 µM in the experiment with OVCAR-3 ovarian; 37.5 µM in the experiment with A549 NSCLC; over 100 µM in the experiment on HCT-15 colon; 5.72 µM with CCRF-CEM leukemia; 19.3 µM with 786-0 renal. The compound also had a TGI with SK-MEL-5 melanoma of 14.2 µM.

For `CCCSc1nc(COC(=O)NC)c(COC(=O)NC)n1C`, the TGI in the experiment on SNB-75 CNS is over 100 µM; in the experiment on OVCAR-3 ovarian it was over 100 µM; in the experiment on A549 NSCLC, over 100 µM; with HCT-15 colon, over 100 µM; in the experiment with CCRF-CEM leukemia it was 86.1 µM and > 64.3 µM; in the experiment on 786-0 renal, over 100 µM. For the same compound, the TGI in the experiment with SR leukemia and with SK-MEL-5 melanoma was over 100 µM throughout.

Take `Cc1c(C(=O)/C=C/c2ccccc2)[n+](=O)c2ccccc2n1[O-]`: the TGI worked out at 64.7 µM in the experiment with SNB-75 CNS; 30.6 µM in the experiment on OVCAR-3 ovarian; 43.2 µM in the experiment with A549 NSCLC; 74.7 µM in the experiment on CCRF-CEM leukemia; 32 µM with 786-0 renal; 66 µM with SR leukemia.

Take `C=CC/C=C/C/C=C/CCCCCCCc1cccc(O)c1C(=O)O`: the TGI with SNB-75 CNS, with OVCAR-3 ovarian, with A549 NSCLC, in the experiment on HCT-15 colon, in the experiment with CCRF-CEM leukemia and in the experiment on 786-0 renal was over 100 µM in each case. The TGI in the experiment with SR leukemia is over 100 µM.

In the case of `O=C1[C@@H]2C(c3ccccc3F)=NO[C@@H]2C(=O)N1c1ccc(Cc2ccc(N3C(=O)[C@H]4C(c5ccccc5F)=NO[C@H]4C3=O)cc2)cc1`, the TGI in the experiment on SNB-75 CNS is over 100 µM; in the experiment with OVCAR-3 ovarian, over 100 µM; with A549 NSCLC, over 100 µM; with HCT-15 colon, over 100 µM; in the experiment on CCRF-CEM leukemia, over 70.8 µM; with 786-0 renal, over 100 µM. For the same compound, the TGI in the experiment on SR leukemia and in the experiment with SK-MEL-5 melanoma was over 100 µM throughout.

Take `c1ccc(C2Nc3ccccc3C3OCCCC23)cc1` (stereo not drawn): the TGI is over 100 µM in the experiment with A549 NSCLC; over 100 µM in the experiment with HCT-15 colon; 84.8 µM with CCRF-CEM leukemia; over 100 µM with 786-0 renal; 31.5 µM in the experiment on SK-MEL-5 melanoma.

For the compound `CSC(C1c2ccccc2N(c2ccc(C)cc2)c2[nH]c(=O)n(C)c(=O)c21)S(=O)(=O)c1ccc(C)cc1` (stereo not drawn), the TGI in the experiment with SNB-75 CNS, in the experiment with OVCAR-3 ovarian, in the experiment with A549 NSCLC, with CCRF-CEM leukemia, in the experiment with 786-0 renal and with SK-MEL-5 melanoma was over 100 µM each time.

In the case of `C1C[OH+]CC[OH+]CC[OH+]CC[OH+]CC[OH+]1.[Cl-].[V]`, the GI50 in the experiment with SNB-75 CNS was 16.2 µM; with OVCAR-3 ovarian, 58.2 µM; in the experiment on A549 NSCLC, 61.1 µM; with HCT-15 colon, over 100 µM; in the experiment on CCRF-CEM leukemia it was over 100000 nM; in the experiment with 786-0 renal, 19 µM. Also, in the experiment with SK-MEL-5 melanoma, the GI50 is 7.48 µM. Further, the TGI in the experiment with SNB-75 CNS is 41.2 µM; in the experiment on OVCAR-3 ovarian it was over 100 µM; in the experiment on A549 NSCLC, over 100 µM; in the experiment on HCT-15 colon it was over 100 µM; with CCRF-CEM leukemia it was over 100 µM; with 786-0 renal, 43.7 µM. The TGI with SK-MEL-5 melanoma was 26.6 µM.

As for `O=C(Nc1c(Cl)cc([N+](=O)[O-])cc1Cl)C(=O)C(C1OC(=O)c2ccccc21)[N+](=O)[O-]` (stereo not drawn), the TGI in the experiment on SNB-75 CNS, in the experiment on OVCAR-3 ovarian, in the experiment on A549 NSCLC, with HCT-15 colon, in the experiment with CCRF-CEM leukemia and in the experiment with 786-0 renal was over 100 µM each time. Besides, the TGI in the experiment with SR leukemia and with SK-MEL-5 melanoma was over 100 µM in each case.

For the compound `COc1cc(/C=C(\C#N)c2ccccc2)cc(OC)c1`, the TGI in the experiment on OVCAR-3 ovarian, in the experiment with A549 NSCLC, in the experiment with HCT-15 colon, in the experiment with CCRF-CEM leukemia, in the experiment with 786-0 renal and in the experiment on SR leukemia was over 100 µM in each case. The same compound had a TGI in the experiment with SK-MEL-5 melanoma of over 100 µM.

`O=C1OC2CCCC[C@@H]2C2C[C@]34CCCCC3[C@@H](C(=O)O4)C12` (stereo partly drawn): the TGI in the experiment with SNB-75 CNS, in the experiment with OVCAR-3 ovarian, with A549 NSCLC, with HCT-15 colon, in the experiment on CCRF-CEM leukemia and in the experiment with 786-0 renal was over 100 µM in each case. This compound registered a TGI in the experiment with SK-MEL-5 melanoma of over 100 µM.

With `C/C(CC(=O)NCCc1ccccc1)=N\NC(=O)C[n+]1ccccc1`, the TGI in the experiment with SNB-75 CNS, in the experiment with OVCAR-3 ovarian, with A549 NSCLC, with HCT-15 colon, in the experiment with 786-0 renal and in the experiment with SK-MEL-5 melanoma was over 100 µM throughout.

With `CCN(CC)c1ccc(N=Nc2ccc(-c3nc4ccc[n+](C)c4s3)cc2)cc1`, the TGI in the experiment on SNB-75 CNS was 27.5 µM; in the experiment on OVCAR-3 ovarian, 15.9 µM; in the experiment on A549 NSCLC it was 26.3 µM; with HCT-15 colon, 32.1 µM; with CCRF-CEM leukemia it was over 100 µM; in the experiment with 786-0 renal, 59.1 µM. The TGI in the experiment on SR leukemia worked out at 53.7 µM; in the experiment with SK-MEL-5 melanoma it was 33.9 µM.

`COc1ccc(OC)c2c(C(=O)O)c(Cc3ccccc3)ccc12`: the TGI with SNB-75 CNS, with OVCAR-3 ovarian, in the experiment on A549 NSCLC, with HCT-15 colon, in the experiment with 786-0 renal and in the experiment with SR leukemia was over 100 µM each time. This compound also returned a TGI in the experiment with SK-MEL-5 melanoma of over 100 µM.

`CCOC(=O)NC(=O)c1cn(CCCOC(=O)CCCCCCCCCCC(=O)OCCCn2cc(C(=O)NC(=O)OCC)c(=O)[nH]c2=O)c(=O)[nH]c1=O`: the TGI in the experiment with OVCAR-3 ovarian, in the experiment on A549 NSCLC, in the experiment on CCRF-CEM leukemia, with 786-0 renal, in the experiment on SR leukemia and in the experiment with SK-MEL-5 melanoma was over 100 µM throughout.

With `C[C@]12CC[C@@H]3c4cc(OCC(F)(F)F)c(O)cc4/C(=N/O)C[C@H]3[C@@H]1CC[C@@H]2O`, the TGI was 0.0269 µM in the experiment with OVCAR-3 ovarian; 35.6 µM in the experiment on A549 NSCLC; over 42.5 µM in the experiment with HCT-15 colon; under 0.0292 µM with CCRF-CEM leukemia; 12.5 µM with SK-MEL-5 melanoma. The GI50 in the experiment on HCT-15 colon was 0.0487 µM; with 786-0 renal, 0.029 µM; in the experiment on SR leukemia it was 3.19 nM and 15.7 nM.

In the case of `S=C1OC2CCCC[C@H]2O1` (stereo partly drawn), the TGI with SNB-75 CNS, in the experiment on OVCAR-3 ovarian, with A549 NSCLC, with CCRF-CEM leukemia, with 786-0 renal and in the experiment on SR leukemia was over 100 µM each time. In the experiment on SK-MEL-5 melanoma, this compound gave a TGI of over 100 µM.

With `CCCCCCCCCCCC(=O)OCC1OC(OC)C(NC(=O)N(CCCl)N=O)C(O)C1O` (stereo not drawn), the TGI in the experiment on SNB-75 CNS turned out to be 52.8 µM; in the experiment on OVCAR-3 ovarian it was 33.4 µM; with A549 NSCLC, 36.8 µM; with HCT-15 colon, 96.1 µM; with CCRF-CEM leukemia, 13.8 µM; in the experiment with 786-0 renal it was 10.4 µM. The figures for the TGI with SR leukemia and with SK-MEL-5 melanoma were 18.6 µM and 29.9 µM, respectively.

In the case of `O=C1CC2CCCC23CC2(CCN13)OCCO2` (stereo not drawn), the TGI in the experiment with SNB-75 CNS, with OVCAR-3 ovarian, in the experiment with A549 NSCLC, in the experiment with CCRF-CEM leukemia, in the experiment on 786-0 renal and in the experiment on SR leukemia was over 100 µM each time. For the same compound, the TGI in the experiment on SK-MEL-5 melanoma was over 100 µM.

As for `N#CC1CC2(C1)OCCS2` (stereo not drawn), the TGI in the experiment on SNB-75 CNS, in the experiment with OVCAR-3 ovarian, in the experiment with A549 NSCLC, in the experiment with HCT-15 colon, in the experiment with CCRF-CEM leukemia and in the experiment on 786-0 renal was over 100 µM each time. The TGI in the experiment with SR leukemia is over 100 µM.

Take `CC(C)(C)c1cc(C(O)(C(F)(F)F)C(F)(F)F)c2c(c1)C(C(F)(F)F)(C(F)(F)F)OC(C(C)(C)C)N2` (stereo not drawn): the TGI stood at 11.7 µM in the experiment with SNB-75 CNS; 9.43 µM with OVCAR-3 ovarian; 13.6 µM in the experiment with A549 NSCLC; 11.7 µM in the experiment with HCT-15 colon; 11.9 µM with 786-0 renal; 7.2 µM in the experiment on SR leukemia. The compound further had a TGI in the experiment with SK-MEL-5 melanoma of 3.6 µM.
